Each structure is given as a SMILES string.

For this experiment, the system named is modified aptamer M3.2 (DNA, aptamer) ACTCATCTGTGAAGAGAAGCAGCACAGAGGTCAGATGTCCGTCAGCCCCGATCGCCATCCAGGGACTCCCCCCTATGCCTATGCGTGCTACCGTGAA
In words: gold nanoparticle colorimetric assay, UV-Vis. The following applies: 250 mM NaCl; 1 µL of 50 mM compound in DMF added; room temperature; thiol oligos on gold nanoparticles.
Consider `CN1C[C@H](CNC(=O)OCc2ccccc2)C[C@@H]2c3cccc4c3c(cn4C)C[C@H]21`, for which the binding entry was “yes”.

In the case of `CC(C)[C@H]1C(=O)N2CCC[C@H]2[C@]2(O)O[C@](NC(=O)[C@@H]3C=C4c5cccc6[nH]cc(c56)C[C@H]4N(C)C3)(C(C)C)C(=O)N12`, the binding result was “no”.

Take `O=C(N[C@H](CO)[C@H](O)c1ccc([N+](=O)[O-])cc1)C(Cl)Cl`: the binding entry was “no”.

For the compound `CN1C[C@H](CN)C[C@@H]2c3cccc4c3c(cn4C)C[C@H]21`, the binding entry was “yes”.

For the compound `NCCc1c[nH]c2ccccc12`, the binding result is listed as “no”.

Take `N[C@@H](Cc1c[nH]c2ccccc12)C(=O)O`: the binding result is listed as “no”.

As to `CN(C)Cc1c[nH]c2ccccc12`, the binding result was “no”.

These data come from PMC3546743 (2012).
